Some test systems named below: NCI-H226; U-251; M14; IGROV-1; HOP-92; BT-549; SK-MEL-2; HCC 2998; ACHN; MDA-N; SN12C; SW-620; UACC-62; SK-MEL-28; RXF 393; T47D; OVCAR-8; MOLT-4; OVCAR-4.
What all share (assay): NCI-60 cell line screen, 48 h

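Interpolation was linear, between the two tested concentrations surrounding the appropriate level; five concentrations were tested over 48 hours in 96-well plates. Here, GI50 denotes the concentration required for 50% inhibition of growth.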 The source made the active and inactive calls. Cut-off read from the data, not from the text of the source: active = GI50 up to about 1.1 µM and inactive = higher.

From ChEMBL document CHEMBL1201862, “PubChem BioAssay data set” (2004) come the findings set out here.

On to `COc1ccc(C(C)NNC(=O)c2cc[n+]([BH2-]C#N)cc2)cc1OC` (configuration not stated), for which the GI50 in the experiment with NCI-H226, in the experiment with U-251, in the experiment on M14, in the experiment with IGROV-1, in the experiment with HOP-92 and in the experiment with BT-549 was > 100 µM (inactive) in each case. Besides, the GI50 in the experiment with SK-MEL-2, with HCC 2998, with ACHN, in the experiment on MDA-N, in the experiment with SN12C and with SW-620 was > 100 µM (inactive) each time. The GI50 with UACC-62, with SK-MEL-28, in the experiment with RXF 393, in the experiment with T47D, in the experiment on OVCAR-8 and in the experiment on MOLT-4 was > 100 µM (inactive) in each case. Also, in the experiment with OVCAR-4, the GI50 is > 100 µM (inactive).

With `COC(=O)c1ccccc1C1CN=NC12Cc1cc(C)c(C)cc1C2=O` (configuration not stated), the GI50 in the experiment on NCI-H226 is > 100 µM (inactive); in the experiment with U-251, 41.6 µM (inactive); with M14 it was 40.7 µM (inactive); in the experiment with IGROV-1, 55.2 µM (inactive); with HOP-92, 28 µM (inactive); in the experiment with BT-549 it was 65.9 µM (inactive). Also, the GI50 was 49.7 µM (inactive) with SK-MEL-2; 55.2 µM (inactive) in the experiment on HCC 2998; 40.2 µM (inactive) in the experiment on ACHN; 33.7 µM (inactive) with MDA-N; 48.9 µM (inactive) in the experiment on SN12C; 51.6 µM (inactive) in the experiment with SW-620. Further, the GI50 in the experiment on UACC-62 is 53 µM (inactive); in the experiment with SK-MEL-28 it was 87.7 µM (inactive); in the experiment with RXF 393, 66.2 µM (inactive); with T47D, 31.8 µM (inactive); in the experiment with OVCAR-8, 54.6 µM (inactive); with MOLT-4, 34.3 µM (inactive). For the same molecule, in the experiment on OVCAR-4, the GI50 is 29.6 µM (inactive).

As to `COCCc1c(C)c(C#N)c2n(C)c3ccccc3n2c1=O`, the GI50 in the experiment with NCI-H226, with U-251, in the experiment on M14, in the experiment on IGROV-1, in the experiment with HOP-92 and in the experiment with BT-549 was > 10 µM (inactive) in each case. Further, the GI50 with SK-MEL-2, with HCC 2998, in the experiment with ACHN, in the experiment with MDA-N, in the experiment on SN12C and in the experiment on SW-620 was > 10 µM (inactive) each time. Also, the GI50 with UACC-62, in the experiment on SK-MEL-28, in the experiment on RXF 393, with T47D, in the experiment on OVCAR-8 and with MOLT-4 was > 10 µM (inactive) each time. The GI50 in the experiment on OVCAR-4 is > 10 µM (inactive).

`COc1cccc([C@H]2C/C(=N\NC(=O)C(=O)N[C@@H](C)c3ccccc3)c3ccccc3N2)c1`: the GI50 is 0.0314 µM (active) in the experiment with NCI-H226; 7.67 µM (inactive) in the experiment with U-251; 0.0249 µM (active) with M14; > 10 µM (inactive) in the experiment on IGROV-1; 7.5 µM (inactive) in the experiment on HOP-92; > 10 µM (inactive) in the experiment with BT-549. The GI50 with SK-MEL-2 is 3.69 µM (inactive); with HCC 2998 it was 0.017 µM (active); with ACHN, 0.0381 µM (active); in the experiment with MDA-N, < 0.01 µM (active); in the experiment on SN12C, 0.0184 µM (active); with SW-620, 0.0339 µM (active). Also, the GI50 with UACC-62 was < 0.01 µM (active); in the experiment with SK-MEL-28, 0.0673 µM (active); in the experiment with RXF 393 it was 5.5 µM (inactive); in the experiment with T47D it was > 10 µM (inactive); in the experiment with OVCAR-8 it was 6.41 µM (inactive); in the experiment on MOLT-4, > 10 µM (inactive). In addition, in the experiment with OVCAR-4, the GI50 was 7.48 µM (inactive).

As for `CN1CCN(C(=S)N(C(=O)c2ccc(Cl)cc2)c2ccccc2)CC1`, the GI50 with NCI-H226, in the experiment with U-251, in the experiment with M14, in the experiment on IGROV-1, with HOP-92 and with BT-549 was > 100 µM (inactive) throughout. The GI50 in the experiment on SK-MEL-2, in the experiment on HCC 2998, in the experiment with ACHN, in the experiment on MDA-N, with SN12C and in the experiment on SW-620 was > 100 µM (inactive) throughout. The GI50 in the experiment on UACC-62, in the experiment with SK-MEL-28, in the experiment with RXF 393, in the experiment with T47D, with OVCAR-8 and in the experiment with MOLT-4 was > 100 µM (inactive) in each case. In the experiment with OVCAR-4, the GI50 is > 100 µM (inactive).

Turning to `O=C1NC(=S)N(c2cccc3ccccc23)C(=O)/C1=C/c1c[nH]c2ccccc12`, the GI50 in the experiment with NCI-H226 is 2.42 µM (inactive); with U-251, 2.22 µM (inactive); with M14, 1.84 µM (inactive); with IGROV-1, 2.03 µM (inactive); in the experiment with HOP-92, 2.13 µM (inactive); in the experiment with BT-549, 1.79 µM (inactive). For the same molecule, the GI50 with SK-MEL-2 was 1.69 µM (inactive); with HCC 2998, 1.87 µM (inactive); in the experiment with ACHN, 2.37 µM (inactive); in the experiment on MDA-N it was 2.1 µM (inactive); with SN12C, 2.02 µM (inactive); with SW-620, 2.25 µM (inactive). Moreover, the GI50 in the experiment on UACC-62 was 1.7 µM (inactive); with SK-MEL-28, 2.26 µM (inactive); with RXF 393 it was 1.91 µM (inactive); with T47D, 3.89 µM (inactive); in the experiment on OVCAR-8, 2.39 µM (inactive); in the experiment on MOLT-4 it was 1.87 µM (inactive). Moreover, the GI50 in the experiment on OVCAR-4 is 2.44 µM (inactive).

Take `Cc1ccc(C)c2c1CC(Cc1ccccc1C(=O)O)C2=O` (configuration not stated): the GI50 in the experiment with NCI-H226, with U-251, with M14, in the experiment on IGROV-1, in the experiment on HOP-92 and with BT-549 was > 100 µM (inactive) in each case. The GI50 in the experiment on SK-MEL-2, in the experiment with HCC 2998, with ACHN, in the experiment with MDA-N, with SN12C and in the experiment with SW-620 was > 100 µM (inactive) throughout. For the same molecule, the GI50 in the experiment with UACC-62 is > 100 µM (inactive); with SK-MEL-28, > 100 µM (inactive); with RXF 393 it was 83.2 µM (inactive); in the experiment on T47D, > 100 µM (inactive); with OVCAR-8 it was > 100 µM (inactive); in the experiment with MOLT-4, > 100 µM (inactive). Further, the GI50 in the experiment with OVCAR-4 is > 100 µM (inactive).

As for `Cc1ccc(C(=O)Nc2ccc(CP(=O)(O)O)cc2CP(=O)(O)O)cc1N`, the GI50 in the experiment with NCI-H226, in the experiment with U-251, in the experiment on M14, in the experiment on IGROV-1, in the experiment with HOP-92 and with BT-549 was > 100 µM (inactive) each time. The GI50 in the experiment on SK-MEL-2, in the experiment on HCC 2998, in the experiment with ACHN, in the experiment on MDA-N, in the experiment with SN12C and with SW-620 was > 100 µM (inactive) throughout. For the same molecule, the GI50 in the experiment on UACC-62, in the experiment on SK-MEL-28, in the experiment with RXF 393, with T47D, in the experiment with OVCAR-8 and in the experiment with MOLT-4 was > 100 µM (inactive) throughout. Also, in the experiment on OVCAR-4, the GI50 was > 100 µM (inactive).
